Measured values published in US6740641B2 (priority 2001, dated 2004).
Where two headings read alike, the source gives them in different places.

Assays:
Experiment in all cases: biochemical
[1] = biological target: T1, recombinant mu-opioid receptor expressed in CHO-K1 cells (Homo sapiens, UniProt P35372); assay type: binding; conditions: for selectivity for mu opioid receptors relative to delta and kappa opioid receptors: from Ki data of Table 4
T1 construct: purchased Receptor Biology Inc; host or cells: CHO-K1

[2] = biological target: T2, recombinant kappa opiod receptor expressed in HEK 293 cells (Homo sapiens, UniProt P41145); assay type: binding
T2 construct: purchased Receptor Biology Inc; host or cells: HEK 293

[3] = biological target: T3, recombinant delta opiod receptor expressed in CHO-K1 cells (Homo sapiens, UniProt P41143); conditions: 0.2 nM [3H]-naltrindole, Table 1; read-out: Delta-Receptor Binding Affinity Ki
T3 construct: purchased Receptor Biology Inc., Beltsville, Md; host or cells: CHO-K1

[4] = 0.2 nM [3H]-diprenorphine, Table 3, read-out: Mu-Receptor Binding Affinity Ki
[5] = 0.15 nM [3H]-bremazocine, Table 2, read-out: Kappa-Receptor Binding Affinity Ki

T2 sequence (P41145 whole entry): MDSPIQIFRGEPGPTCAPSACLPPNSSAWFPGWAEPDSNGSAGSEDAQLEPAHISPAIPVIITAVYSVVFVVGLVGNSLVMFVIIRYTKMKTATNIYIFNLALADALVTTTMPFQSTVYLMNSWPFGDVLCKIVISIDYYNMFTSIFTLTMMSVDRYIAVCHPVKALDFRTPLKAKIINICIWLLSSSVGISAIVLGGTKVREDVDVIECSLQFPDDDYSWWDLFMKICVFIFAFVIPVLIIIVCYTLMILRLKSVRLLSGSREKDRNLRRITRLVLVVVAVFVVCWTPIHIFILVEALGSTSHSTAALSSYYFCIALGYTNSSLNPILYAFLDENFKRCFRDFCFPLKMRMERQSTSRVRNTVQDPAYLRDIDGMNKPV
T1 sequence (P35372 whole entry): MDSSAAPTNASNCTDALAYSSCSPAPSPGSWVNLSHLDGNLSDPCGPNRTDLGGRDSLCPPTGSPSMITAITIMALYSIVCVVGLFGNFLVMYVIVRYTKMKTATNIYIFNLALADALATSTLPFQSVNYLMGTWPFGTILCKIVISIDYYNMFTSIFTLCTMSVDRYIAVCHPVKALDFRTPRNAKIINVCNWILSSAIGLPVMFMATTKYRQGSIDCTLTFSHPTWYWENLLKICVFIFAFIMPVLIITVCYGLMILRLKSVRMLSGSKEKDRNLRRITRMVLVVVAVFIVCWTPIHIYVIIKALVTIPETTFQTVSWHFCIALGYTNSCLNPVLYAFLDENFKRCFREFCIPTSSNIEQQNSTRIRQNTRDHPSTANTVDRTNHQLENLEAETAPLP
T3 sequence (P41143 whole entry): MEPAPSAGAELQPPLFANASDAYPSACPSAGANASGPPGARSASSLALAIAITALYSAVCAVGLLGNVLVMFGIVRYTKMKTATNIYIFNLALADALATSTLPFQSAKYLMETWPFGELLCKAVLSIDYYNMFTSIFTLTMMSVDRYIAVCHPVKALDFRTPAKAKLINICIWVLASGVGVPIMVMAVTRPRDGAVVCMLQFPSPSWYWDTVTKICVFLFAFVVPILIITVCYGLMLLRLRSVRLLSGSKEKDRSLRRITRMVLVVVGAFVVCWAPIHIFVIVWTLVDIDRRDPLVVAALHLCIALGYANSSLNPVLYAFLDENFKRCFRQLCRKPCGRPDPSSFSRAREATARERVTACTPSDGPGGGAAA

Structure (SMILES) | Ki [1] | Ki [2] | mu selectivity compared with morphine sulfate [1] | Ki [1, 4] | selectivity for mu opioid receptors relative to delta and kappa opioid receptors [1] | Ki [2, 5] | Ki [3]
CN1CC[C@]23c4c5ccc(O)c4O[C@H]2[C@@H](O)CC[C@H]3[C@H]1C5 [Dihydromorphine, reference compound] | 0.00039 µM |  |  |  |  |  | 
Oc1ccc2c3c1O[C@H]1c4oc5ccccc5c4C[C@@]4(O)[C@@H](C2)N(CC2CC2)CC[C@]314 [Naltriben, reference compound] |  | 0.0024 µM |  |  |  |  | 
CN1CCC23c4c5ccc(O)c4O[C@H]2[C@H](OC2OC(CO)C(O)C(O)C2O)CCC3C1C5 (stereo partly drawn) [Dihydroisomorphine-6-glucoside, 6-O-Glucosyldihydroisomorphine] |  |  | higher than that of morphine sulfate | 0.0047 µM | high selectivity for mu opioid receptors | 0.44 µM | 0.868 µM
CN1CC[C@]23c4c5ccc(OC6O[C@H](CO)[C@@H](O)[C@H](O)[C@H]6O)c4O[C@H]2C(=O)CC[C@H]3[C@H]1C5 (stereo partly drawn) [Hydromorphone-3-glucoside, 3-O-Glucosylhydromorphone] |  |  | higher than that of morphine sulfate | 0.051 µM | high selectivity for mu opioid receptors | 2.4 µM | 4.5 µM
